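Following 48 hours of exposure in 96-well plates, responses at five concentrations were used to interpolate endpoints linearly. Abbreviation: GI50, concentration required for 50% inhibition of growth.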 The source made the active and inactive calls. Rule as the data show it: active = GI50 up to about 1.1 µM and inactive = higher.
Assays:
Experiment in all cases: growth of human tumour cells (NCI), 48 h
UO-31 = system: UO-31
HL-60 = system: HL-60
SNB-19 = system: SNB-19
OVCAR-3 = system: OVCAR-3
COLO 205 = system: COLO 205
A549 = system: A549
SN12C = system: SN12C
NCI-H460 = system: NCI-H460
HCC 2998 = system: HCC 2998
RXF 393 = system: RXF 393
SK-MEL-5 = system: SK-MEL-5
SNB-75 = system: SNB-75
OVCAR-8 = system: OVCAR-8
OVCAR-5 = system: OVCAR-5
SF-268 = system: SF-268
MOLT-4 = system: MOLT-4
SK-MEL-2 = system: SK-MEL-2
NCI-H23 = system: NCI-H23
NCI-H226 = system: NCI-H226
SF-295 = system: SF-295

Row | Compound | GI50 (UO-31) | GI50 (HL-60) | GI50 (SNB-19) | GI50 (OVCAR-3) | GI50 (COLO 205) | GI50 (A549) | GI50 (SN12C) | GI50 (NCI-H460) | GI50 (HCC 2998) | GI50 (RXF 393) | GI50 (SK-MEL-5) | GI50 (SNB-75) | GI50 (OVCAR-8) | GI50 (OVCAR-5) | GI50 (SF-268) | GI50 (MOLT-4) | GI50 (SK-MEL-2) | GI50 (NCI-H23) | GI50 (NCI-H226) | GI50 (SF-295)
1 | O=C1Nc2ccccc2/C1=N/NC(=S)Nc1ccccc1Cl | 3.32 µM (inactive) | 4.44 µM (inactive) | 4.84 µM (inactive) | 2.16 µM (inactive) | 3.63 µM (inactive) | 3.58 µM (inactive) | 10.4 µM (inactive) | 0.735 µM (active) | 34.7 µM (inactive) | 5.2 µM (inactive) | 2.89 µM (inactive) | 2.82 µM (inactive) | 2.23 µM (inactive) | 26.5 µM (inactive) | 0.706 µM (active) | 1.43 µM (inactive) | 13.8 µM (inactive) | 8.71 µM (inactive) | 10.1 µM (inactive) | 1.29 µM (inactive)
2 | COc1cc2c3c(c4ccc(O)cc4c2cc1OC)[C@@H](O)[C@@H]1CCCN1C3 | < 0.001 µM (active) | 0.00116 µM (active) | < 0.001 µM (active) | 0.00122 µM (active) | 0.0178 µM (active) | < 0.001 µM (active) | < 0.001 µM (active) | < 0.001 µM (active) | < 0.001 µM (active) | 0.00123 µM (active) | < 0.001 µM (active) | < 0.001 µM (active) | < 0.001 µM (active) | < 0.001 µM (active) | < 0.001 µM (active) | < 0.001 µM (active) | < 0.001 µM (active) | 0.0012 µM (active) | < 0.001 µM (active) | < 0.001 µM (active)
3 | O=c1cc(O)ccn1C1C=C(CO)C(O)C1O (stereo not given) | > 625 µM (inactive) | 183 µM (inactive) | > 625 µM (inactive) | > 625 µM (inactive) |  | > 625 µM (inactive) | 586 µM (inactive) | 131 µM (inactive) | > 625 µM (inactive) | > 625 µM (inactive) | > 625 µM (inactive) | > 625 µM (inactive) | > 625 µM (inactive) |  | > 625 µM (inactive) |  | > 625 µM (inactive) |  | > 625 µM (inactive) | > 625 µM (inactive)
4 | Cc1ccc(S(=O)(=O)C2=Cc3ccc(C(F)(F)F)cc3C2(O)c2cccc(C(F)(F)F)c2)cc1 (stereo not given) | 2.25 µM (inactive) | 1.65 µM (inactive) | 5.83 µM (inactive) | 1.64 µM (inactive) | 1.79 µM (inactive) | 2.99 µM (inactive) | 1.88 µM (inactive) | 2.33 µM (inactive) | 2.43 µM (inactive) | 2.23 µM (inactive) | 1.88 µM (inactive) | 2.93 µM (inactive) | 1.41 µM (inactive) | 2.08 µM (inactive) | 2.39 µM (inactive) | 2.5 µM (inactive) | 1.82 µM (inactive) | 2.01 µM (inactive) | 2.15 µM (inactive) | 2.45 µM (inactive)
5 | CN1C(=O)C2C=C3CCCCC3=CC2N(C)C1=O (stereo not given) | > 100 µM (inactive) | > 100 µM (inactive) | > 100 µM (inactive) | > 100 µM (inactive) | > 100 µM (inactive) | > 100 µM (inactive) | > 100 µM (inactive) | > 100 µM (inactive) | > 100 µM (inactive) | > 100 µM (inactive) | > 100 µM (inactive) | > 100 µM (inactive) | > 100 µM (inactive) | > 100 µM (inactive) | > 100 µM (inactive) | > 100 µM (inactive) | > 100 µM (inactive) | > 100 µM (inactive) | > 100 µM (inactive) | > 100 µM (inactive)
6 | CC(=O)C(/N=N\C1CCC(S(=O)(=O)NB2N=CS2)CC1)C(=O)Nc1ccccc1C (stereo not given) | 18.8 µM (inactive) | > 100 µM (inactive) | 16.5 µM (inactive) | 13.8 µM (inactive) | 20.9 µM (inactive) | 13 µM (inactive) | 17.4 µM (inactive) | 15.8 µM (inactive) | 17.5 µM (inactive) | 21 µM (inactive) | 12.6 µM (inactive) | 17.5 µM (inactive) | 10.5 µM (inactive) | 19.8 µM (inactive) | 14.7 µM (inactive) | 18.3 µM (inactive) | 17.9 µM (inactive) | 13.6 µM (inactive) | 14.9 µM (inactive) | 17 µM (inactive)
7 | COCO[C@@H]1C[C@H]2C(O)Nc3ccccc3C(=O)N2C1 (stereo not given in full) | > 100 µM (inactive) | > 100 µM (inactive) | > 100 µM (inactive) | > 100 µM (inactive) | > 100 µM (inactive) | > 100 µM (inactive) |  | > 100 µM (inactive) | > 100 µM (inactive) | > 100 µM (inactive) | > 100 µM (inactive) | > 100 µM (inactive) | > 100 µM (inactive) | > 100 µM (inactive) | > 100 µM (inactive) | > 100 µM (inactive) | > 100 µM (inactive) | > 100 µM (inactive) | > 100 µM (inactive) | > 100 µM (inactive)

Reference: ChEMBL document CHEMBL1201862, “PubChem BioAssay data set” (2004)
